The record followed here is US9642858B2, “Use of resazurin, or analogs thereof, for antibacterial therapy” (priority 2012, dated 2017).

Values after ≈ are worked out from the molar mass of the structure shown. “Also recorded” adds a separate entry of the source.

In data set [1] the test system is F. tularensis LVS. The data set can be described thus: microbe, parasite or virus in culture. Type of data set: cell-based, Francisella tularensis.
For data set [2], the system named is type A F. tularensis (Schu S4). The class given is cell-based, Francisella tularensis. The conditions noted are these: 44 μM.
Data set [3] deals with N. gonorrhoeae. Type of data set: cell-based, Neisseria gonorrhoeae. The conditions noted are these: 44 μM.
The subject of data set [4] is Escherichia coli. The class given is cell-based. The conditions noted are these: 44 μM.
For data set [5], the system named is Pseudomonas aeruginosa. The class given is cell-based. To be noted: 44 μM.
The subject of data set [6] is F. tularensis LVS in HEK-293 cells. The class given is cell-based, Francisella tularensis.
Data set [7] relates to F. tularensis LVS in primary human macrophages. The class given is cell-based, Francisella tularensis.
Data set [8] deals with N. polysaccharea. The class given is cell-based, Neisseria polysaccharea.
Data set [9] deals with N. sicca. The class given is cell-based, Neisseria sicca.
The test system of data set [10] is F. novicida. Type of data set: cell-based, Francisella novicida.
For data set [11], the system named is primary human macrophages. Nature of the data set: Viability of infected macrophages treated with resazurin (visible reduction of resazurin to resorufin). For orientation: Alamar Blue is a resazurin reagent that responds to reducing activity.

Take `O=c1ccc2nc3ccc(O)cc3oc-2c1` [resorufin]: in [1], the “antibacterial activity (viable bacteria per ml)” value was “have antibacterial activity”, the “antimicrobial effect on F. tularensis LVS viability (CFU) relative to resazurin” value was “equivalently potent antimicrobial effect” and the “bactericidal activity to F. tularensis” value is “bactericidal”.

For the compound `O=c1ccc2[n+]([O-])c3ccc(O)cc3oc-2c1` [resazurin, 7-Hydroxy-3H-phenoxazin-3-one 10-oxide], the “bactericidal effect on chocolate II agar” value in [2] is on record as “potent bactericidal effect”. Besides, in data set [3], the “bactericidal effect on chocolate II agar” value is on record as “potent bactericidal effect”. In addition, in [1], the F. tularensis growth entry is “growth is inhibited”; the “antibacterial activity (viable bacteria per ml)” value is on record as “have antibacterial activity”; the “antimicrobial activity, effect of medium” value is given as “not affected by the choice of medium”; the “bacterial viability over time” value is “significant decline in viable bacteria”. Further, in data set [1], the “bactericidal activity to F. tularensis” value was “bactericidal”, the “reduction in viable F. tularensis LVS bacteria compared to growth medium alone” value was about 10 fold and the viable bacteria result is on record as “decrease in viable bacteria”. In data set [1] (Francisella tularensis, read-out: minimal inhibitory concentration against F. tularensis), the MIC is 4.4 µM (≈ 1.01 µg/mL). Moreover, the “bacterial viability / antimicrobial effect” value in [4] is on record as “does not have an antimicrobial effect; also recorded: no effect on bacterial viability”. For the same compound, the “bacterial viability / antimicrobial effect” value in [5] is “does not have an antimicrobial effect; also recorded: no effect on bacterial viability”. Besides, in data set [6], the “intracellular growth / bacterial burden” value was “inhibited intracellular growth; also recorded: reduces bacterial burden” and the “viable intracellular bacteria compared to the control” value is on record as “substantial decrease in viable bacteria”. In addition, in data set [7], the “intracellular growth / bacterial burden” value is listed as “inhibited intracellular growth; also recorded: reduces bacterial burden” and the viable intracellular bacteria result is “substantial decrease in viable bacteria”. For the same compound, the bactericidal activity entry in data set [8] is reported as “bactericidal”. Also, the bactericidal activity entry in data set [9] is reported as “bactericidal”. In addition, the bactericidal activity result in data set [10] is “bactericidal”. In addition, the “viability of macrophages (toxicity)” value in [11] is on record as “still viable”.
